The IC50 is the concentration that inhibits the measured activity by half.

Bounds are passed on as bounds.

One test relates to Aβ1-42 production. In words: Cellular assay for inhibition of Aβ1-42 production (H4 APP751 SWE clone 8.20). The class given is cell-based. The conditions noted are these: 19 h, H4 APP751 SWE clone 8.20 cells, 19 h incubation; read-out: Activity Rating (Aβ42 cellular IC50, given as a number). Summed up: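 Aβ42 level read with antibodies 565, against the Aβ42 neoepitope, and N-terminal 26D6, incubated overnight at 4° C, after exposure of H4 APP751 SWE clone 8.20 cells to compound for 19 h at 37° C. Medium was DMEM plus 0.0125% BSA, 1.5×10^4 cells/well. IC50 values come from curve fitting.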
Consider `COc1cc(Nc2nc3c(s2)CCCC3c2ccccc2)ccc1-n1cnc(C)n1` (stereo not shown) [Example 67, N-(3-methoxy-4-(3-methyl-1H-1,2,4-triazol-1-yl)phenyl)-4-phenyl-4,5,6,7-tetrahydrobenzo[d]thiazol-2-amine], for which the IC50 is 19 nM.
Still for that read-out and setting: under `COc1cc(Nc2nc3c(s2)CCCC3(C)c2ccccc2)ccc1-n1cnc(Cl)c1` (stereo not shown) [Example 73, N-(4-(4-chloro-1H-imidazol-1-yl)-3-methoxyphenyl)-4-methyl-4-phenyl-4,5,6,7-tetrahydrobenzo[d]thiazol-2-amine 2,2,2-trifluoroacetate] stands 140 nM; under `COc1cc(Nc2nc3c(s2)CCCC3(N)c2ccccc2)ccc1-n1cnc(C)n1` (stereo not shown) [Example 82, N2-(3-methoxy-4-(3-methyl-1H-1,2,4-triazol-1-yl)phenyl)-4-phenyl-4,5,6,7-tetrahydrobenzo[d]thiazole-2,4-diamine], 190 nM.
Still for that read-out and setting: under `COc1cc(Nc2nc3n(n2)CCCCC3c2ccc(F)cc2)cnc1-n1cnc(Cl)c1` (stereo not shown) [Example 86, N-(6-(4-chloro-1H-imidazol-1-yl)-5-methoxypyridin-3-yl)-9-(4-fluorophenyl)-6,7,8,9-tetrahydro-5H-[1,2,4]triazolo[1,5-a]azepin-2-amine] stands 6 nM; under `COc1cc(Nc2cc3n(n2)C(c2ccc(F)cc2)CCC3)ccc1-n1cnc(Cl)c1` (stereo not shown) [Example 90, N-(4-(4-chloro-1H-imidazol-1-yl)-3-methoxyphenyl)-7-(4-fluorophenyl)-4,5,6,7-tetrahydropyrazolo[1,5-a]pyridin-2-amine], 12 nM.

Staying with this test, now noted: 19 h, H4 APP751 SWE clone 8.20 cells, 19 h incubation; read-out: Activity Rating (based on Aβ42 cellular IC50 values).
With `COc1cc(Nc2nc3n(n2)CCCCC3c2ccc(F)cc2)ccc1-c1nc(C)no1` (stereo not shown) [Example 60, 9-(4-fluorophenyl)-N-(3-methoxy-4-(3-methyl-1,2,4-oxadiazol-5-yl)phenyl)-6,7,8,9-tetrahydro-5H-[1,2,4]triazolo[1,5-a]azepin-2-amine], the IC50 lay within 100 to 1000 nM.
On the same count and under the same terms, under `COc1cc(Nc2nc3n(n2)CCCCC3c2ccc(F)cc2)ccc1-c1cc(C)no1` (stereo not shown) [Example 61, 9-(4-fluorophenyl)-N-(3-methoxy-4-(3-methylisoxazol-5-yl)phenyl)-6,7,8,9-tetrahydro-5H-[1,2,4]triazolo[1,5-a]azepin-2-amine] stands 100 to 1000 nM; under `COc1cc(Nc2nc3c(s2)CCCC3c2ccccc2)ccc1-n1cnc(Cl)c1` (stereo not shown) [Example 68, N-(4-(4-chloro-1H-imidazol-1-yl)-3-methoxyphenyl)-4-phenyl-4,5,6,7-tetrahydrobenzo[d]thiazol-2-amine], 10 to 100 nM.
Turning to `COc1cc(Nc2nc3c(s2)CCCC3c2ccccc2)ccc1-n1cnc(C)c1` (stereo not shown) [Example 71, N-(3-methoxy-4-(4-methyl-1H-imidazol-1-yl)phenyl)-4-phenyl-4,5,6,7-tetrahydrobenzo[d]thiazol-2-amine 2,2,2-trifluoroacetate], the IC50 lay in the range of 10 to 100 nM.
On the same count and under the same terms, under `COc1cc(Nc2nc3c(s2)CCCC3c2ccccc2)ccc1-c1ccnc(C)c1` (stereo not shown) [Example 72, N-(3-methoxy-4-(2-methylpyridin-4-yl)phenyl)-4-phenyl-4,5,6,7-tetrahydrobenzo[d]thiazol-2-amine 2,2,2-trifluoroacetate] stands 10 to 100 nM; under `COc1cc(Nc2nc3c(s2)CC2(CC3c3ccc(F)cc3)OCCO2)ccc1-n1cnc(Cl)c1` (stereo not shown) [Example 74, N-(4-(4-chloro-1H-imidazol-1-yl)-3-methoxyphenyl)-4-(4-fluorophenyl)-5,7-dihydro-4H-spiro[benzo[d]thiazole-6,2′-[1,3]dioxolan]-2-amine], 10 to 100 nM.
Same read-out and setting: the result for `COc1cc(Nc2nc3c(s2)CC(=O)CC3c2ccc(F)cc2)ccc1-n1cnc(Cl)c1` (stereo not shown) [Example 75, 2-(4-(4-chloro-1H-imidazol-1-yl)-3-methoxyphenylamino)-4-(4-fluorophenyl)-4,5-dihydrobenzo[d]thiazol-6(7H)-one] reads 10 to 100 nM.
With `COc1cc(Nc2nc3c(s2)CC(O)CC3c2ccc(F)cc2)ccc1-n1cnc(Cl)c1` (stereo not shown) [Example 76, 2-(4-(4-chloro-1H-imidazol-1-yl)-3-methoxyphenylamino)-4-(4-fluorophenyl)-4,5,6,7-tetrahydrobenzo[d]thiazol-6-ol], the IC50 is below 10 nM.
On the same count and under the same terms, under `COc1cc(Nc2nc3c(s2)CC(N)CC3c2ccc(F)cc2)ccc1-n1cnc(Cl)c1` (stereo not shown) [Example 77, N2-(4-(4-chloro-1H-imidazol-1-yl)-3-methoxyphenyl)-4-(4-fluorophenyl)-4,5,6,7-tetrahydrobenzo[d]thiazole-2,6-diamine] stands 100 to 1000 nM; under `COc1cc(Nc2nc3c(s2)CC(N(C)C)CC3c2ccc(F)cc2)ccc1-n1cnc(Cl)c1` (stereo not shown) [Example 78, N2-(4-(4-chloro-1H-imidazol-1-yl)-3-methoxyphenyl)-4-(4-fluorophenyl)-N6,N6-dimethyl-4,5,6,7-tetrahydrobenzo[d]thiazole-2,6-diamine], 100 to 1000 nM.
Turning to `CNC1Cc2sc(Nc3ccc(-n4cnc(Cl)c4)c(OC)c3)nc2C(c2ccc(F)cc2)C1` (stereo not shown) [Example 79, N2-(4-(4-chloro-1H-imidazol-1-yl)-3-methoxyphenyl)-4-(4-fluorophenyl)-N-6-methyl-4,5,6,7-tetrahydrobenzo[d]thiazole-2,6-diamine], the IC50 fell in the range of 10 to 100 nM.
Still for that read-out and setting: the result for `COc1cc(Nc2nc3c(s2)CCCC3Cc2ccccc2)ccc1-n1cnc(Cl)c1` (stereo not shown) [Example 80, 4-benzyl-N-(4-(4-chloro-1H-imidazol-1-yl)-3-methoxyphenyl)-4,5,6,7-tetrahydrobenzo[d]thiazol-2-amine 2,2,2-trifluoroacetate] reads 100 to 1000 nM; that for `COc1cc(Nc2nc3c(s2)CCCC3(O)c2ccccc2)ccc1-n1cnc(C)n1` (stereo not shown) [Example 81, 2-(3-methoxy-4-(3-methyl-1H-1,2,4-triazol-1-yl)phenylamino)-4-phenyl-4,5,6,7-tetrahydrobenzo[d]thiazol-4-ol], 10 to 100 nM.
Consider `COc1cc(Nc2nc3c(s2)CCCC3(NCc2ccc(Cl)cc2)c2ccccc2)ccc1-n1cnc(Cl)c1` (stereo not shown) [Example 83, N2-(4-(4-chloro-1H-imidazol-1-yl)-3-methoxyphenyl)-N4-(4-chlorobenzyl)-4-phenyl-4,5,6,7-tetrahydrobenzo[d]thiazole-2,4-diamine], for which the IC50 lay in the range of 100 to 1000 nM.
Consider `COc1cc(Nc2nc3c(s2)CC(OC)(OC)CC3c2ccc(F)cc2)ccc1-n1cnc(Cl)c1` (stereo not shown) [Example 84, N-(4-(4-chloro-1H-imidazol-1-yl)-3-methoxyphenyl)-4-(4-fluorophenyl)-6,6-dimethoxy-4,5,6,7-tetrahydrobenzo[d]thiazol-2-amine], for which the IC50 lay within 10 to 100 nM.
Same read-out and setting: the result for `COc1cc(Nc2nc3c(s2)CCCCC3c2ccc(F)cc2)ccc1-n1cnc(Cl)c1` (stereo not shown) [Example 85, N-(4-(4-chloro-1H-imidazol-1-yl)-3-methoxyphenyl)-4-(4-fluorophenyl)-5,6,7,8-tetrahydro-4H-cyclohepta[d]thiazol-2-amine 2,2,2-trifluoroacetate] reads 10 to 100 nM.
Take `COc1cc(Nc2nc3n(n2)C(c2ccc(F)cc2)CCC3)ccc1-n1cnc(Cl)c1` (stereo not shown) [Example 89, N-(4-(4-chloro-1H-imidazol-1-yl)-3-methoxyphenyl)-5-(4-fluorophenyl)-5,6,7,8-tetrahydro-[1,2,4]triazolo[1,5-a]pyridin-2-amine 2,2,2-trifluoroacetate]: the half-inhibitory concentration (IC50) fell in the range of 10 to 100 nM.

The record behind these values is patent US8349880B2, “Bicyclic compounds for the reduction of beta-amyloid production” (Bristol-Myers Squibb Company, priority 2009, dated 2013).
